Test results published in patent publication US10899733B2, “Inhibitors of PARPs that catalyze mono-ADP-ribosylation” (OREGON HEALTH & SCIENCE UNIVERSITY, priority 2017, dated 2021).

Target: T1, PARP12 (Homo sapiens, UniProt Q9H0J9)
T1 sequence (Q9H0J9 1-701): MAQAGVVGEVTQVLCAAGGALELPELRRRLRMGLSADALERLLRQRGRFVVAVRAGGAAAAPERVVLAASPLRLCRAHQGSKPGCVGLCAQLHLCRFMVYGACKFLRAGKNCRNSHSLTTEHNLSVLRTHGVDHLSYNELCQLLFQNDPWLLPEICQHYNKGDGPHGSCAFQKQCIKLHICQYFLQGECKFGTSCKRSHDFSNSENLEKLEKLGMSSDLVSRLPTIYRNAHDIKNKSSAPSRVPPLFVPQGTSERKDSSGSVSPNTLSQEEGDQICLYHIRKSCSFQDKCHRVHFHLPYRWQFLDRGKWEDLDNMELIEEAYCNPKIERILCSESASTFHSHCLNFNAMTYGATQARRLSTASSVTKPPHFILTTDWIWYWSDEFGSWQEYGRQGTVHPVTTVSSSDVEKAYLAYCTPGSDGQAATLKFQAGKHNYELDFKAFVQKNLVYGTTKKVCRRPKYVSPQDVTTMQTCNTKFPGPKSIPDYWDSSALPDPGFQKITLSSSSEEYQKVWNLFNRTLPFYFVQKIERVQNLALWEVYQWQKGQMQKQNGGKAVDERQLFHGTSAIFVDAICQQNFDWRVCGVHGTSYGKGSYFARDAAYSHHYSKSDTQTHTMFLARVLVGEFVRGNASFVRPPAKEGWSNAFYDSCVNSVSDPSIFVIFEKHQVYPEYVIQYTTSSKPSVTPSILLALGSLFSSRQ
Test: PARP panel: ADP-ribosylation of SRPK2 using 6-a-NAD+
Assay type: biochemical

## Cc1c(-c2ccnc(C(F)(F)F)c2)ccc2c1CCNC2=O [Compound 22, 5-methyl-6-(2-(trifluoromethyl)pyridin-4-yl)-3,4-dihydroisoquinolin-1(2H)-one]
6-a-NAD+
  IC50: > 30 µM
PARP12 over PARP10cat
  PARP/PARP10: >10
